Reference: US20030054535A1, “Endoglucanase mutants and mutant hydrolytic depolymerizing enzymes and uses thereof” (priority 1999, published 2003)
Several values for one entry are separate records, joined by “and”; a condition that tells them apart may be missing. Identical values can stand only once.

Assays:
Type in all cases: biochemical
[1] = target: T1, Acidothermus cellulolyticus EI endoglucanase (Cel5A) catalytic domain, wild type (native), SEQ ID NO:3 of U.S. Pat. No. 5,536,655 (Acidothermus cellulolyticus, UniProt P54583); test: Inhibition by cellobiose of hydrolysis of 4-methylumbelliferyl-β-D-cellobioside (MUC), wild type; conditions: Ki for inhibition by cellobiose, substrate MUC 4 and 20 μM, 30 min, cellobiose 0 to 5 mM, Dixon plots
T1 construct: the mutant and wild type Cel5A catalytic domains were purified using the purification methods described above; made in house; host or cells: E. coli XL1-blue
T1 sequence (P54583 42-400): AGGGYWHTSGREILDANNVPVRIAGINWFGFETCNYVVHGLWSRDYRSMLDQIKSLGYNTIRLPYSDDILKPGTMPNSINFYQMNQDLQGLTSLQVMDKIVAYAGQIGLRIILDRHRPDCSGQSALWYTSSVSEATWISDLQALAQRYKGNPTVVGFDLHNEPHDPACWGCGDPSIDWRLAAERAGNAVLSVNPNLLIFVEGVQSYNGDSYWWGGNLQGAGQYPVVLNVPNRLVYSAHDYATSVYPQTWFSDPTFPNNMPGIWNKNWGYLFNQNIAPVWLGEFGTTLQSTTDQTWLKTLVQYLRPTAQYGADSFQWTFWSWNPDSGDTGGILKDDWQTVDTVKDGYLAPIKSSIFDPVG
Method: (§1) The enzymes (0.682 ng) were incubated for 30 min with the substrate at each of two concentrations (4 and 20 μM), in the presence of D-cellobiose (Sigma, St. Louis) )at concentrations ranging from 0 to 5 mM for the wild type catalytic domain, and from 0 to 50 mM for the Y245G mutant. At the end of the incubation period, the reaction in each 1-mL assay mixture was terminated by addition of 2 mL of 0.5 M sodium carbonate, pH 10.0. The extent of hydrolysis was then determined from the fluorescence of the ionized product, 4-methylumbelliferone, as measured in a SPEX FLUOROLOG spectrofluorometer with excitation wavelength at 380 nm and emission wavelength at 455 nm. These studies established that under these conditions, […]. Inhibition constants were then determined by means of Dixon plots of reciprocal velocity versus inhibitor concentration (Segel, 1975).
(§2) The mutant Cel5A enzyme, Y245G, was generated by PCR mutagenesis, and the mutant and wild type Cel5A catalytic domains were purified using the purification methods described above. […] For this reason, the molar extinction coefficients of the recombinant enzymes were calculated by considering the specific change in amino acid composition.

[2] = target: T2, Acidothermus cellulolyticus EI endoglucanase (Cel5A) catalytic domain variant Y245G, SEQ ID NO:3 (Acidothermus cellulolyticus, UniProt P54583, Y286G); test: Inhibition by cellobiose of hydrolysis of 4-methylumbelliferyl-β-D-cellobioside (MUC), Y245G mutant
T2 construct: the mutant and wild type Cel5A catalytic domains were purified using the purification methods described above; made in house; host or cells: E. coli XL1-blue
T2 sequence (P54583 42-399 Y286G): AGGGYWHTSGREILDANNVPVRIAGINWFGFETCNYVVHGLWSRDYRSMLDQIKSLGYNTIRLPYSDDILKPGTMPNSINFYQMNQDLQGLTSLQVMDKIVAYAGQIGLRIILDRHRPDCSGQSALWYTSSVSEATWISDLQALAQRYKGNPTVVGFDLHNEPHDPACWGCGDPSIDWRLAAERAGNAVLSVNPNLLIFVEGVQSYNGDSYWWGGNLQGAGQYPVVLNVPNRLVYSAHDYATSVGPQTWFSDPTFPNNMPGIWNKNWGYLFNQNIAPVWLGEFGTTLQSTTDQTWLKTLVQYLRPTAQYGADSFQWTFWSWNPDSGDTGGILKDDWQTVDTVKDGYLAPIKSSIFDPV
Method: as §1, §2

[3] = target: T3, Acidothermus cellulolyticus EI endoglucanase (Cel5A) catalytic domain variant W42R, SEQ ID NO:1 (Acidothermus cellulolyticus, UniProt P54583, W83R); test: Michaelis-Menten kinetics of cellotriose hydrolysis (cellobiose release), EIW42R; conditions: relative to native enzyme
T3 construct: the protein was genetically truncated near the beginning of the linker peptide; made in house; host or cells: E. coli XL1-blue
T3 sequence (P54583 42-399 W83R): as the sequence (P54583 42-399 Y286G) above, with W42R, G245Y counted along it
Method: (§3) Each assay mixture was pre-incubated at 50 degrees C. for 10 min. prior to the addition of 0.00272 micromolar (0. 1092 microgram/mL) enzyme, which was also made up in 5 mM acetate buffer with 10 microgram/mL BSA. The final assay volume was 0.1 mL.
(§4) At set-time intervals, an aliquot of the reaction mixture was pulled and immediately analyzed for the release of cellobiose using a Dionex DX300 chromatography system and a Dionex PAD2 pulsed amperometric detector having a gold working electrode. The response of this detector was optimized for the detection of carbohydrates using a waveform defined by the following time and potential settings: t1=420 msec.; EI=+0.05 V; t2=180 msec.; E2=+0.75 V; t3=360 msec.; and E3=−0.15 V. Separation of the reaction products, from the substrate, was achieved on a Dionex CarboPac PA-1 analytical (4×250 mm) column equipped with CarboPac PA-1 ([…], 500 mM sodium hydroxide eluent, and a flow rate of 1.5 mL/min. The amount of cellobiose present for each time-point-sample was quantified by comparing the area of the cellobiose peak against a linear calibration curve. The kinetic constants were determined with a double-reciprocal-plot, where the reciprocal of the rate of cellobiose produced was plotted as a function of the inverse of the substrate concentration.
(§5) Michaelis-Menten kinetics of the mutant EI enzymes and the native enzyme were determined.

[4] = target: T4, Acidothermus cellulolyticus EI endoglucanase (Cel5A) catalytic domain variant Y82R, SEQ ID NO:2 (Acidothermus cellulolyticus, UniProt P54583, Y123R); test: Michaelis-Menten kinetics of cellotriose hydrolysis (cellobiose release), EIY82R; conditions: relative to native enzyme
T4 construct: the protein was genetically truncated near the beginning of the linker peptide; made in house; host or cells: E. coli XL1-blue
T4 sequence (P54583 42-399 Y123R): as the sequence (P54583 42-399 Y286G) above, with Y82R, G245Y counted along it
Method: as §3, §4, §5

Compound	Ki [1]	Ki ([2]; Ki for inhibition by cellobiose, substrate MUC 4 and 20 μM, 30 min, cellobiose 0 to 50 mM, Dixon plots)	decrease in apparent binding energy of cellobiose versus native enzyme ([2]; from increase in Ki, Y245G relative to wild type)	Vmax, % higher than that of the native enzyme [3]	Vmax, % higher than that of the native enzyme [4] [%]
OC[C@H]1O[C@@H](O[C@H]2[C@H](O)[C@@H](O)C(O)O[C@@H]2CO)[C@H](O)[C@@H](O)[C@@H]1O (stereo partly drawn) [cellobiose, D-cellobiose]	1.88 mM and 2 mM	29.7 mM and 30 mM	1.7 kcal/mol and ~1.5 kcal/mol		
OC[C@H]1O[C@@H](O[C@H]2[C@H](O)[C@@H](O)[C@H](O[C@H]3[C@H](O)[C@@H](O)C(O)O[C@@H]3CO)O[C@@H]2CO)[C@H](O)[C@@H](O)[C@@H]1O (some centres unmarked) [cellotriose]				about 15%	~75
